One block for each compound: values may come before it.
Columns and labels:
[1] = test system: sugarcane plantlet; test: Storage of plantlets in Starcla tube seed structures after chemical treatment during regeneration; field survival; type: in vivo; conditions: for Survival: survival after 5 weeks of growth in field
Text: The effect of time, temperature, and light on storage of plantlets was studied, in combination with the effect of chemical treatment. Seed structures consisted of 4″ Starcla™ tubes. Tubes were extruded from a resin, such as a blend of polybutylene succinate, polylactic acid, and starch, using a 1½″ Davis Standard-extruder. Tubing was made with ⅝″ I.D. and cut into 4″ length tubes. The seeds were assembled by heating the bottom of the tube and pressing into a crescent shape where there is 2-3 millimeter gap between both sides. Two grams of potting media were added to each tube. One sugarcane plantlet was placed inside the tube structure ensuring the roots were placed in the soil and the shoot remained in the airspace. Two milliliters of water were added to the structure and then the top was prepared by heating and forming a crescent shape with a 2-3 millimeter gap between both sides.
Two types of chemical treatments were used during regeneration. The first treatment was paclobutrazol (paclo), which was introduced into the media for weeks 3 and 4 of plantlet formation. The solution contained 2% sucrose, ½ strength MS, 100 ppm cefotaxime, and 0.75 mg/L paclobutrazol. The second treatment was abscisic acid (ABA) which was introduced the day before the plantlets were removed from regeneration. The ABA treatment solution contained 1 mg/L ABA, 10 g/L sucrose, and MS solution.
The tubes were stored in partially closed zip bags with 25 tubes per unit. After storage the seeds were planted. No irrigation was used during the time the plantlets were growing in the field. The survival rates of the plantlets were measured after 5 weeks of growth.

[2] = test system: regenerable plant tissue (RPT); test: Culturing of regenerable plant tissue in media with BAP; type: cell-based, sugarcane; conditions: BAP present in the culture
Text: General procedures have been previously outlined (International Publication No. WO 2013/096531, incorporated by reference herein). In summary, half-explants were trimmed of excess stalk tissue, leaving behind the proliferating buds areas. Trimmed tissue was placed into a temporary immersion chamber for liquid culture, or back onto solid media. In the case of temporary immersion, the chamber was placed in a growth chamber, or room, with 30 uE/m2/sec of PAR light, and was hooked to tubing connected to pumps to allow standard immersion cycling. Media (MS+3% sucrose+[…]+3 mg/L paclobutrazol) was changed weekly. Harvest occurred 2-20 weeks after initiation, depending on whether the tissue is grown on solid or liquid media, and the overall mass of the regenerable plant tissue (RPT).
The RPT was subdivided into additional growth chambers or plates as needed. Multiple rounds of growth cycles were possible.

[3] = Accelerated degradation of cellulosic composites buried in soil; type: physicochemical; conditions: buried in soil 1 month, 30° C., approximately 50% humidity; confidence interval 95%
Description: Cellulosic pulp was mixed with various materials to study the influence of the materials in the degradation of them in soil. To evaluate the different materials developed with cellulose, an accelerated degradation protocol was developed wherein samples with different compositions were buried in a recipient containing soil, and kept for 1 month in an incubator at 30° C. and approximately 50% humidity, representing field conditions. The cellulose content was measured using thermogravimetric analyses before and after the test to evaluate degradation, indicating cellulose degradation in field.
Different materials were tested, including a residue from the pulp and paper industry containing cellulosic fibers of long and short nature; inorganic fillers, mainly TiO2 and pigments. The final structure contained more than 90% of this cellulose mixture. To this mixture was added polyvinyl alcohol, up to 5% in weight, ionomer of ethylene acid copolymer, up to 5% in weight, used in the packaging industry, cationic starch, up to 5% in weight, more likely 1% to accelerate degradation, while promoting the adherence of the adjacent fibers of cellulose, urea to accelerate the degradation and nutrition of plants up to 10% in weight, more likely 5%, and AKD (alkyl ketene dimer) in a starch solution to serve as moisture barrier by changing the hydrophobicity of cellulose, more likely between 1-10 ppm.

[4] = test system: sugarcane; test: Plantlet formation with Na silicate added to MS media; field test; type: in vivo; conditions: 5 mM added to MS media in weeks 3 and 4; observational evidence
Description: Plantlet formation (production of plants with shoots and roots), also called regeneration, was initiated by transferring the RPT to media without hormones. RPT fragments were made using scalpels, chopping tools, or by large scale dicing of material by mechanical means. Fragment size was determined by end usage: RPT fragments for growth in arrays were approximately 1-10 mm cubes, for growth in temporary immersion chambers somewhat larger fragments 5-20 mm were used, or the RPT was left unfragmented. The media used was MS+3% sucrose. Plantlet formation occurred at 26° C. in 60 uE/m2/sec of PAR light (16 hours on and 8 hours off), and if temporary immersion was used media was cycled over the fragments for 1 minute every 2 hours. Media was replaced weekly and was supplemented with 100 ppm carbenicillin, 0.2% PPM (Plant Preservative Mixture™, Plant Cell Technology Inc. Washington, D.C.), and/or 100 ppm cefotaxime as needed. Supplemental carbon dioxide (1500 ppm) was used in some growth cycles, but is not essential. After 3-4 weeks the MS concentration was decreased to ½ strength to encourage rooting, although not required.
The addition of 5 mM Na silicate to the MS media was made in weeks 3 and 4. […] Silicates accumulated in sugarcane tissues conferring anti-predatory, anti-fungal properties. […]

[5] = Conditions N, O: 0 weeks, not stored

Compound: CC(C)(C)[C@@H](O)[C@@H](Cc1ccc(Cl)cc1)n1cncn1 (racemic) [Paclo, paclobutrazol]
Survival ([1]; Condition A: storage 8 weeks, temperature 10, light 0): 0% | Survival ([1]; Condition B: storage 8 weeks, temperature 30, light 200): 88% | Survival ([1]; Condition E: storage 4 weeks, temperature 10, light 5): 0% | Survival ([1]; Condition F: storage 4 weeks, temperature 30, light 0): 0% | Survival ([1]; Condition J: storage 2 weeks, temperature 10, light 0): 0% | Survival ([1]; Condition K: storage 2 weeks, temperature 30, light 200): 64% | Survival [1, 5]: 16% | Survival rate compared between treatments ([1]; storage experiment of Table 3 overall): higher survival rate than the ABA treatment

Compound: CC1=CC(=O)CC(C)(C)[C@@]1(O)/C=C/C(C)=C\C(=O)O [ABA, abscisic acid]
Survival ([1]; Condition C: storage 8 weeks, temperature 10, light 5): 0% | Survival ([1]; Condition D: storage 8 weeks, temperature 30, light 0): 0% | Survival ([1]; Condition G: storage 4 weeks, temperature 10, light 0): 0% | Survival ([1]; Condition H: storage 4 weeks, temperature 30, light 200): 50% | Survival ([1]; Condition L: storage 2 weeks, temperature 10, light 5): 0% | Survival ([1]; Condition M: storage 2 weeks, temperature 30, light 0): 0% | Survival [1, 5]: 12%

Compound: c1ccc(CNc2ncnc3nc[nH]c23)cc1 [BAP, 6-Benzylaminopurine]
Root formation [2]: No root formation is detected

Influence on the degradation of cellulosic compounds [3]: high influence
Compound: NC(N)=O [urea]

Compound: Na silicate
Growth rate and root production in a field test [4]: improves growth rate and root production
